# According to PMC11449996 (Clinical Pharmacokinetics, 2024):
# Like-named read-outs stand apart in the source and are kept apart here.
# Columns and labels:
# staphylococci = settings: cited from earlier work
# hepatic cytochromes = settings: ref 13; cited from earlier work
# [1] = Population pharmacokinetic model of dalbavancin; assay type: in vivo, patients
# [2] = test system: Staphylococcus epidermidis; settings: bloodstream infection isolates, 72 US and European medical centers; cited from earlier work
# MRSA = settings: bloodstream infection isolates, 72 US and European medical centers; cited from earlier work
# [3] = cited from earlier work
# [4] = cited from earlier work; remark: listed apart in the source
# [5] = test system: C-reactive protein (C-RP) production; assay type: in vivo, patients
# [6] = median of 1000 non-parametric bootstrap iterations
# [7] = population estimate, final PK/PD model
structure (smiles),measurement,setting,value
"CN[C@H]1C(=O)N[C@@H]2Cc3ccc(cc3)Oc3cc4cc(c3O[C@@H]3O[C@H](C(=O)O)[C@@H](O)[C@H](O)[C@H]3NC(=O)CCCCCCCCC(C)C)Oc3ccc(cc3Cl)[C@@H](O)[C@@H]3NC(=O)[C@H](NC(=O)[C@@H]4NC(=O)[C@@H](NC2=O)c2cc(cc(O)c2Cl)Oc2cc1ccc2O)c1ccc(O)c(c1)-c1c(O[C@H]2O[C@H](CO)[C@@H](O)[C@H](O)[C@@H]2O)cc(O)cc1[C@@H](C(=O)NCCCN(C)C)NC3=O [dalbavancin, Dalbavancin]","MIC90, value at which 90% of the wild-type strains are inhibited",staphylococci,0.0625 mg/L
same,drug–drug interactions,hepatic cytochromes,no clinically relevant drug–drug interactions
same,substrate of the hepatic cytochromes,hepatic cytochromes,not a substrate of the hepatic cytochromes
same,clearance,"[1]; human, plasma, intravenous, 1500 mg",0.75 mL/min
same,"CL, non-renal clearance of dalbavancin, bootstrap median",[1]; [6],0.028 L/h
same,"Q, bootstrap median",[1]; [6],0.04 L/h
same,"V1, bootstrap median",[1]; [6],5.98 L
same,"V2, bootstrap median",[1]; [6],9.08 L
same,"β_eGFR, bootstrap median",[1]; [6],0.005
same,"V1, volume of distribution of the central compartment",[1]; [7],5.93 L
same,"V2, volume of distribution of the peripheral compartment",[1]; [7],9.55 L
same,"β_eGFR, coefficient of eGFR when dalbavancin CL was scaled to eGFR","[1]; population estimate, final PK/PD model, eGFR by CKD-EPI",0.0042
same,MIC90,[2],0.06 mg/L
same,MIC90,MRSA,0.03 mg/L
same,terminal half-life,[3]; intravenous route,147 to 258 h
same,"CL, population estimates of previous studies","[3]; ref 5, 25, 26",0.043 to 0.057 L/h
same,"V, population estimates of previous studies","[3]; ref 5, 25, 26",15 to 15.9 L
same,administered dose excreted in urine,[3]; ref 13,up to 42%
same,plasma protein binding,[4]; ref 13,93–98%
same,plasma protein binding,[4]; ref 15,93%
same,free IC50 on C-RP production,[5]; from total IC50 […] mg/L considering plasma protein binding of 93%,0.05 mg/L
same,"IC50, bootstrap median",[5]; [6],0.58 mg/L
same,"kout, bootstrap median",[5]; [6],0.0038 h^–1
same,"kout, elimination rate of C-RP concentration in plasma","[5]; population estimate, final PK/PD model, 211 C-RP plasma concentrations",0.0037 h^–1
